# Experimental data reported in patent US20250289785A1, “INDOLE DERIVATIVE, METHOD FOR PREPARING SAME, AND USE THEREOF” (MITOIMMUNE THERAPEUTICS INC., priority 2021, published 2025).
# How the values were obtained:
# [1] = system: H9C2 cells; assay: Cell protection effect against t-BHP in heart cells (LDH release); assay type: cell-based; conditions: H9C2, t-BHP 40 μM, 2 hours
# In short: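 H9C2 cardiomyocytes pre-treated 15–20 min with compound (final 0.03–30 μM, 3-fold series), then challenged with 40 μM t-BHP for 2 h. LDH released into supernatant measured colorimetrically (30 min, room temperature, A490); EC50 calculated from protection.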
# [2] = system: NIH/3T3 cells; assay: Cell death protective effect in fibroblasts against Erastin, glutamate and RSL3 (LDH); assay type: cell-based, mouse; conditions: 24 h
# Description: (§1) In order to identify the protective effect on fibroblasts, NIH/3T3 cells were divided into 96-well plates by 8×10^3 and cultured for 18 to 24 hours. The compounds of Examples were diluted to final concentrations of 0.1 and 1 μM, treated in each well, and incubated for 15 to 20 minutes. Erastin, glutamate, and RSL3 were treated to have final concentrations of 3 μM, 30 mM, and 3 μM, respectively, and cultured for 24 hours. In order to identify the protective effect of each compound, the degree of LDH extracellular secretion was measured using cytotoxicity LDH assay kit [Dojindo; CK12]. Briefly, at the time when the treatment of the cells with Erastin, glutamate, and RSL3 for 24 hours is completed, the supernatants containing the cells are taken by 70 μL and transferred to a new 96-well plate. The assay buffer included in the kit is added in an amount of 70 μL/well (the same amount as the sample) thereto, and then the plate is wrapped with a foil and the reaction is performed at room temperature for 15 minutes.
# [3] = system: H9C2 cells; assay: Cell death protective effect in cardiac myocytes against Erastin, glutamate and RSL3 (LDH); assay type: cell-based, white mouse; conditions: 24 h
# Description: as §1, with “on cardiac cells, H9C2” for “on fibroblasts, NIH/3T3”, “by 1×10^4” for “by 8×10^3”, “and 1.0” for “and 1”, “of 1” for “of 3”, “μM, 25” for “μM, 30”, “and 0.5” for “and 3”
# [4] = system: ARPE-19 cells; assay: Cell death protective effect in retinal epithelial cells against Erastin and RSL3 (LDH); assay type: cell-based, human; conditions: 24 h
# Description: In order to identify the protective effect on retinal epithelial cells, ARPE-19 cells were divided into 96-well plates by 1×10^4 and cultured for 18 to 24 hours. The compounds of Examples were diluted to final concentrations of 0.03 and 0.3 μM, treated in each well, and incubated for 20 minutes. Erastin, and RSL3 were treated to have final concentrations of 10 μM, and 0.3 μM, respectively, and cultured for 24 hours. In order to identify the protective effect of each compound, the degree of LDH extracellular secretion was measured using cytotoxicity LDH assay kit [Dojindo; CK12]. Briefly, at the time when the treatment of the cells with Erastin, and RSL3 for 24 hours is completed, the supernatants containing the cells are taken by 70 μL and transferred to a new 96-well plate. The assay buffer included in the kit is added in an amount of 70 μL/well (the same amount as the sample) thereto, and then the plate is wrapped with a foil and the reaction is performed at room temperature for 15 minutes.
# [5] = system: MLE-12 cells; assay: Cell death protective effect in lung epithelial cells against RSL3 (LDH); assay type: cell-based, rat; conditions: MLE-12, RSL3, 1 μM, 24 h
# Description: In order to identify the protective effect on lung epithelial cells, MLE-12 cells were divided into 96-well plates by 5×10^3 and cultured for 18 to 24 hours. The compounds of Examples were diluted to final concentrations of 0.03 and 0. μM, treated in each well, and incubated for 20 minutes. RSL3 was treated to have final concentrations of 1. μM, respectively, and cultured for 24 hours. In order to identify the protective effect of each compound, the degree of LDH extracellular secretion was measured using cytotoxicity LDH assay kit [Dojindo; CK12]. Briefly, at the time when the treatment of the cells with RSL3 for 24 hours is completed, the supernatants containing the cells are taken by 70 μL and transferred to a new 96-well plate. The assay buffer included in the kit is added in an amount of 70 μL/well (the same amount as the sample) thereto, and then the plate is wrapped with a foil and the reaction is performed at room temperature for 15 minutes.
smiles,measurement,setting,value
"CCOCc1cc(NC2CCOCC2)c2[nH]c(-c3ccccc3)c(-c3ncc[nH]3)c2c1 [Example 46, 5-(ethoxymethyl)-3-(1H-imidazol-2-yl)-2-phenyl-N-(tetrahydro-2H-pyran-4-yl)-1H-indole-7-amine]",EC50,[1],> 1000 nM
same,inhibition (%),"[2]; NIH/3T3, Erastin, 3 μM, compound 0.1 μM",102%
same,inhibition (%),"[2]; NIH/3T3, Erastin, 3 μM, compound 1.0 μM",99%
same,inhibition (%),"[2]; NIH/3T3, Glutamate, 30 mM, compound 0.1 μM",0%
same,inhibition (%),"[2]; NIH/3T3, Glutamate, 30 mM, compound 1.0 μM",96%
same,inhibition (%),"[2]; NIH/3T3, RSL3, 3 μM, compound 0.1 μM",0%
same,inhibition (%),"[2]; NIH/3T3, RSL3, 3 μM, compound 1.0 μM",100%
same,inhibition (%),"[3]; H9C2, Erastin, 1 μM, compound 0.1 μM",4%
same,inhibition (%),"[3]; H9C2, Erastin, 1 μM, compound 1.0 μM",100%
same,inhibition (%),"[3]; H9C2, Glutamate, 25 mM, compound 0.1 μM",4%
same,inhibition (%),"[3]; H9C2, Glutamate, 25 mM, compound 1.0 μM",94%
same,inhibition (%),"[3]; H9C2, RSL3, 0.5 μM, compound 0.1 μM",15%
same,inhibition (%),"[3]; H9C2, RSL3, 0.5 μM, compound 1.0 μM",9%
same,inhibition (%),"[4]; ARPE-19, Erastin, 10 μM, compound 0.03 μM",3%
same,inhibition (%),"[4]; ARPE-19, Erastin, 10 μM, compound 0.3 μM",64%
same,inhibition (%),"[4]; ARPE-19, RSL3, 0.3 μM, compound 0.03 μM (first RSL3 column)",5%
same,inhibition (%),"[4]; ARPE-19, RSL3, 0.3 μM, compound 0.03 μM (second RSL3 column)",43%
same,inhibition (%),[5]; compound 0.03 μM,0%
same,inhibition (%),[5]; compound 0.3 μM,7%
